From patent US20250144067A1, “PERSONALIZED STARVATION THERAPY FOR CANCER” (Faeth Therapeutics, Inc., priority 2021, published 2025)
Counter-ions that a name gives are not always drawn. Like-named read-outs stand apart in the source and are kept apart here.

Legend:
[1] = system: NCI-H292 lung cancer cells; assay: FDA drug screening, complete media vs cholesterol-free media without statin (TABLE 1); format: cell-based, human
[2] = system: NCI-H292 lung cancer cells; assay: FDA drug screening, complete media vs cholesterol-free media with simvastatin (TABLE 2); format: cell-based, human
[3] = Complete minus Cholesterol-free, >0 enhanced anti-cancer activity, about 0 neutral, <0 antagonist
[4] = NCI-H292 cells, cholesterol-free media without statin
[5] = NCI-H292 cells, FDA library drug in cholesterol-free media with simvastatin 0.04 μM
[6] = NCI-H292 cells, FDA library drug in complete media
[7] = complete media vs cholesterol-free media + simvastatin (0.04 μM), >0 enhanced anti-cancer activity, about 0 neutral, <0 antagonist
[8] = complete vs cholesterol-free media, greater than 0 enhanced anti-cancer activity, about 0 neutral, below 0 antagonists
[9] = NCI-H292 cells, FDA drug library screen, cholesterol-free media with simvastatin 0.04 μM
[10] = NCI-H292 cells, FDA drug library screen, complete media
[11] = complete media minus cholesterol-free media + simvastatin, >0 enhanced anti-cancer activity, about 0 neutral, <0 antagonist
[12] = Complete minus Cholesterol-free, greater than 0 enhanced anti-cancer activity, about 0 neutral, below 0 antagonist
[13] = NCI-H292 cells, FDA drug library screen, cholesterol-free media without statin
[14] = NCI-H292 cells, cholesterol-free media without statin, FDA drug library screen
[15] = NCI-H292 cells, complete media, FDA drug library screen
[16] = complete vs cholesterol-free media, >0 enhanced anti-cancer activity, about 0 neutral, <0 antagonist
[17] = NCI-H292 cells, cholesterol-free media with simvastatin 0.04 μM, cell growth value in FDA drug screen

| Compound | Cholesterol-free [1, 4] | Complete ([1]; NCI-H292 cells, complete media) | Cholesterol-free media + simvastatin (0.04 μM) [2, 5] | Complete Media [2, 6] | Difference [2, 7] | Cholesterol-free media + simvastatin (0.04 μM) [2, 9] | Complete Media [2, 10] | Difference [2, 11] | Cholesterol-free [1, 14] | Complete [1, 15] | Difference [1, 16] | other results |
| --- | --- | --- | --- | --- | --- | --- | --- | --- | --- | --- | --- | --- |
| COc1ccc(O)cc1 [Mequinol] | 0.8829 | 0.6277 | 1.22 | 0.8263 | −0.39 | – | – | – | – | – | – | Difference [1, 3]: −0.26 |
| Nc1c(CC(=O)O)cccc1C(=O)c1ccc(Br)cc1 [Bromfenac (sodium hydrate)] | 1.074 | 0.716 | – | – | – | 1.132 | 1.293 | 0.16 | – | – | – | Difference [1, 8]: −0.36 |
| CCN[C@H]1C[C@H](C)S(=O)(=O)c2sc(S(N)(=O)=O)cc21 [Dorzolamide (hydrochloride)] | – | – | 0.9476 | 0.6459 | −0.30 | – | – | – | – | – | – | Difference [1, 12]: −0.11; Cholesterol-free [1, 13]: 1.045; Complete [1, 10]: 0.9378 |
| C=CC(=O)Nc1cccc(Oc2nc(Nc3ccc(N4CCN(C)CC4)cc3)nc3ccsc23)c1 [Olmutinib] | – | – | – | – | −0.11 | 0.5571 | 0.4482 | – | 0.5571 | 0.798 | 0.24 | – |
| CC1OC2(CS1)CN1CCC2CC1 (centres unmarked) [Cevimeline (hydrochloride hemihydrate)] | – | – | – | – | – | – | – | – | 0.5656 | 1.046 | 0.48 | Cholesterol-free media + simvastatin (0.04 μM) ([2]; NCI-H292 cells, cholesterol-free media with simvastatin 0.04 μM, FDA drug library screen (TABLE 2)): 0.9444; Complete Media ([2]; NCI-H292 cells, complete media, FDA drug library screen (TABLE 2)): 0.9482; Difference ([2]; complete media minus cholesterol-free media + simvastatin (0.04 μM), >0 enhanced anti-cancer activity, about 0 neutral, <0 antagonist): 0.00 |
| Nc1nc(Cl)nc2c1ncn2[C@H]1C[C@H](O)[C@@H](CO)O1 [Cladribine] | – | – | – | – | −0.13 | 0.1545 | 0.02741 | – | −0.008506 | 0.0649 | – | Difference [1, 3]: 0.07 |
| CO[C@H]1/C=C/O[C@@]2(C)Oc3c(C)c(O)c4c(O)c(c(/C=N/N5CCN(C)CC5)c(O)c4c3C2=O)NC(=O)/C(C)=C\C=C\[C@H](C)[C@H](O)[C@@H](C)[C@@H](O)[C@@H](C)[C@H](OC(C)=O)[C@@H]1C [Rifampicin] | – | – | 1.219 | 0.8641 | −0.36 | – | – | – | 0.7396 | 1.143 | 0.40 | – |
| O=C(O)CCCN1CCC(O[C@@H](c2ccc(Cl)cc2)c2ccccn2)CC1 [Bepotastine] | – | – | – | – | −0.20 | – | – | – | 0.9809 | 1.256 | 0.28 | Cholesterol-free media + simvastatin (0.04 μM) ([2]; NCI-H292 cells, drug in cholesterol-free media with simvastatin 0.04 μM): 0.9667; Complete Media ([2]; NCI-H292 cells, drug in complete media): 0.7639 |
| NS(=O)(=O)c1cc2c(cc1Cl)N=C(CSCc1ccccc1)NS2(=O)=O [Benzthiazide] | – | – | – | – | – | – | – | 0.04 | – | – | – | Difference [1, 12]: −0.08; Cholesterol-free [1, 13]: 0.9561; Complete [1, 10]: 0.8751; Cholesterol-free media + simvastatin (0.04 μM) [2, 17]: 1.107 |
| COc1cc(NS(C)(=O)=O)ccc1Nc1c2ccccc2nc2ccccc12 [Amsacrine (hydrochloride)] | – | – | 0.8278 | 0.3873 | −0.44 | – | – | – | 0.2374 | 0.2416 | – | Difference [1, 3]: 0.00 |
| C=C1CCN([C@H](C)[C@](O)(Cn2cncn2)c2ccc(F)cc2F)CC1 [Efinaconazole] | 1.307 | 0.8534 | – | – | – | 0.5953 | 1.082 | 0.49 | – | – | – | Difference [1, 8]: −0.45 |
| CCCc1nc(C)c2c(=O)[nH]c(-c3cc(S(=O)(=O)N4CCN(CC)CC4)ccc3OCC)nn12 [Vardenafil (hydrochloride)] | 1.352 | 0.985 | – | – | – | – | – | 0.05 | – | – | – | Difference [1, 8]: −0.37; Cholesterol-free media + simvastatin (0.04 μM) [2, 17]: 1.201; Complete Media ([2]; NCI-H292 cells, complete media, cell growth value in FDA drug screen): 1.248 |
| Primaquine (Diphosphate) | – | – | – | – | – | – | – | – | – | – | – | Cholesterol-free [1]: 1.192; Complete [1]: 0.8514; Difference [1]: −0.34; Cholesterol-free media + simvastatin (0.04 μM) [2]: 1.421; Complete Media [2]: 1.652; Difference [2]: 0.23 |
